Experimental findings from patent US20240287070A1, “FUSED HETEROCYCLIC DERIVATIVES” (Janssen Sciences Ireland Unlimited Company, priority 2021, published 2024) are described below.

Data set [1] is described as follows: Cytotoxicity, ATPlite Luminescence Assay. The format is cell-based, human. Particulars: human, HepG2 or HepG2.117 cells, 3-days incubation unless marked with *. In outline: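 Compounds were added to cells and incubated 3 or 4 days. ATP content was then measured by luminescence to gauge cell viability.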
A general note: ATP-based viability assays read luminescence as a measure of living cells.

The test system of data set [2] is HBV (HepG2.117 cell line, inducibly HBV producing). Kind of data set: Anti-HBV activity, intracellular HBV DNA by real-time PCR in HepG2.117 cell line. The format is cell-based, hepatitis B virus. The following applies: HepG2.117 cells, 3 days of treatment. The method in brief: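 First, HBV replication is induced in HepG2.117 cells by doxycycline absence. Next, serially diluted compound is added for 3 days. Finally, intracellular HBV DNA is quantified by HBV-specific real-time PCR.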
Background: In qPCR the cycle at which signal appears reflects the starting amount.

Data set [3] can be described thus: Human liver microsome stability. It is filed as in vitro ADME. Particulars: 1 μM compound, NADPH 1 mM, 37° C., 0-60 min; for half-life at 1 μM: human, pooled human liver microsomes, pH 7.4, pooled human liver microsomes 0.5 mg/mL, read-out: HLM Metabolism t1/2; for HLM Metabolism t1/2: pooled human liver microsomes 0.5 mg/mL. In outline:
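Half-life came from elimination rate constant (negative slope of ln compound/internal standard area ratio over time), measured by cassette LC-MS after acetonitrile quench. Human liver microsome reactions, one replicate per compound, were initiated with NADPH (1 mM final) and sampled at six points up to 60 min.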
A general note: Liver microsomes are a subcellular fraction often used to study metabolism.

Setting [4] is: Hepatitis B virus, HepG2.117, 72 h.

Usually CC50 stands for the concentration at which the toxic effect on the cells reaches its halfway point. One may read the EC50 as the concentration giving half of the maximal effect. Higher therefore signals a need for much substance. In data set [1], `CC(c1cnc(C(F)(F)F)nc1)N1C[C@@H](C)n2nc3c(c2C1=O)CN(C(=O)c1ccc(Cl)c(Cl)c1)[C@H](C)C3` (single isomer, unassigned) [Compound 34A, (3R,7R)-2-(3,4-dichlorobenzoyl)-3,7-dimethyl-9-((R*)-1-(2-(trifluoromethyl)pyrimidin-5-yl)ethyl)-1,2,3,4,8,9-hexahydropyrido[4′,3′:3,4]pyrazolo[1,5-a]pyrazin-10(7H)-one] came in with a 50% cytotoxic concentration (CC50) at 3 days of more than 50 µM. Also, the response in data set [2] was half-maximal at 0.63 µM (EC50). In addition, the half-life at 1 μM in data set [3] is more than 3 h.

`CC(c1cnc(C(C)(C)O)nc1)N1C[C@@H](C)n2nc3c(c2C1=O)CN(C(=O)c1ccc(Cl)c(C(F)(F)F)c1)[C@H](C)C3` (single isomer, unassigned) [Compound 35A, (3R,7R)-2-(4-chloro-3-(trifluoromethyl)benzoyl)-9-((R*)-1-(2-(2-hydroxypropan-2-yl)pyrimidin-5-yl)ethyl)-3,7-dimethyl-1,2,3,4,8,9-hexahydropyrido[4′,3′:3,4]pyrazolo[1,5-a]pyrazin-10(7H)-one] had a CC50 at 3 days in data set [1] of more than 50 µM. For the same molecule, a half-maximal effect in data set [2] (EC50) was put at 0.2 µM. The “HLM Metabolism t1/2” value in data set [3] was determined as 0.783 h.

The molecule `CC(c1cnc(C(C)(C)O)nc1)N1C[C@@H](C)n2nc3c(c2C1=O)CN(C(=O)c1ccc(Cl)c(Cl)c1)[C@H](C)C3` (single isomer, unassigned) [Compound 36A, (3R,7R)-2-(3,4-Dichlorobenzoyl)-9-((R*)-1-(2-(2-hydroxypropan-2-yl)pyrimidin-5-yl)ethyl)-3,7-dimethyl-1,2,3,4,8,9-hexahydropyrido[4′,3′:3,4]pyrazolo[1,5-a]pyrazin-10(7H)-one] had a CC50 at 3 days in data set [1] of more than 50 µM. In addition, the EC50 in data set [2] is 0.64 µM. Also, the half-life at 1 μM in data set [3] is more than 3 h.

Take `CC(c1cnc(NC2CC2)nc1)N1C[C@@H](C)n2nc3c(c2C1=O)CN(C(=O)c1ccc(Cl)c(Cl)c1)[C@H](C)C3` (single isomer, unassigned) [Compound 37A, (3R,7R)-9-((R*)-1-(2-(cyclopropylamino)pyrimidin-5-yl)ethyl)-2-(3,4-dichlorobenzoyl)-3,7-dimethyl-1,2,3,4,8,9-hexahydropyrido[4′,3′:3,4]pyrazolo[1,5-a]pyrazin-10(7H)-one]: in data set [1], the CC50 at 3 days was more than 50 µM. A half-maximal response in data set [2] (EC50) required 0.15 µM. Further, the “HLM Metabolism t1/2” value in data set [3] was more than 3 h.

In the case of `CC(c1cnc(N2CCOC[C@@H]2C)nc1)N1C[C@@H](C)n2nc3c(c2C1=O)CN(C(=O)c1ccc(Cl)c(C(F)(F)F)c1)[C@H](C)C3` (single isomer, unassigned) [Compound 38A, (3R,7R)-2-(4-chloro-3-(trifluoromethyl)benzoyl)-3,7-dimethyl-9-((R*)-1-(2-((S)-3-methylmorpholino)pyrimidin-5-yl)ethyl)-1,2,3,4,8,9-hexahydropyrido[4′,3′:3,4]pyrazolo[1,5-a]pyrazin-10(7H)-one], in data set [1], the CC50 at 3 days is 47 µM. The EC50 in data set [2] was 0.06 µM. The half-life at 1 μM in data set [3] was 1.01 h.

In data set [1], `CC(c1ncccn1)N1C[C@@H](C)n2nc3c(c2C1=O)CN(C(=O)c1ccc(Cl)c(Cl)c1)[C@H](C)C3` (single isomer, unassigned) [Compound 39A, (3R,7R)-2-(3,4-dichlorobenzoyl)-3,7-dimethyl-9-((R*)-1-(pyrimidin-2-yl)ethyl)-1,2,3,4,8,9-hexahydropyrido[4′,3′:3,4]pyrazolo[1,5-a]pyrazin-10(7H)-one] showed a CC50 at 3 days of more than 50 µM. The EC50 in data set [2] was 0.13 µM. Moreover, the half-life at 1 μM in data set [3] worked out at 1.59 h.

With `CC(c1ncc(C(F)(F)F)cn1)N1C[C@@H](C)n2nc3c(c2C1=O)CN(C(=O)c1ccc(Cl)c(Cl)c1)[C@H](C)C3` (single isomer, unassigned) [Compound 40A, (3R,7R)-2-(3,4-dichlorobenzoyl)-3,7-dimethyl-9-((R*)-1-(5-(trifluoromethyl)pyrimidin-2-yl)ethyl)-1,2,3,4,8,9-hexahydropyrido[4′,3′:3,4]pyrazolo[1,5-a]pyrazin-10(7H)-one], the CC50 at 3 days in data set [1] was determined as 22 µM. Also, in data set [2], the EC50 worked out at 0.054 µM. In addition, the half-life at 1 μM in data set [3] is more than 3 h.

Take `CC(c1cnc(C(C)(C)O)cn1)N1C[C@@H](C)n2nc3c(c2C1=O)CN(C(=O)c1ccc(Cl)c(C(F)(F)F)c1)[C@H](C)C3` (single isomer, unassigned) [Compound 41A, (3R,7R)-2-(4-chloro-3-(trifluoromethyl)benzoyl)-9-((R*)-1-(5-(2-hydroxypropan-2-yl)pyrazin-2-yl)ethyl)-3,7-dimethyl-1,2,3,4,8,9-hexahydropyrido[4′,3′:3,4]pyrazolo[1,5-a]pyrazin-10(7H)-one]: in data set [1], the cytotoxic concentration (CC50) at 3 days was more than 50 µM. The same molecule returned a 50% effective concentration (EC50) in data set [2] of 0.076 µM. In data set [3], the half-life at 1 μM is more than 3 h.

Turning to `CC(c1ccn(CC(F)(F)F)n1)N1C[C@@H](C)n2nc3c(c2C1=O)CN(C(=O)c1ccc(Cl)c(C#N)c1)[C@H](C)C3` (single isomer, unassigned) [Compound 42B, 2-chloro-5-((3R,7R)-3,7-dimethyl-10-oxo-9-((S*)-1-(1-(2,2,2-trifluoroethyl)-1H-pyrazol-3-yl)ethyl)-1,2,3,4,7,8,9,10-octahydropyrido[4′,3′:3,4]pyrazolo[1,5-a]pyrazine-2-carbonyl)benzonitrile], the CC50 at 3 days in data set [1] was more than 50 µM. In data set [2] (setting [4]), this molecule returned an EC50 of 0.06 µM. The half-life at 1 μM in data set [3] was more than 3 h.

Turning to `Cc1nnc(C(C)N2C[C@@H](C)n3nc4c(c3C2=O)CN(C(=O)c2ccc(Cl)c(Cl)c2)[C@H](C)C4)o1` (single isomer, unassigned) [Compound 43A, (3R,7R)-2-(3,4-dichlorobenzoyl)-3,7-dimethyl-9-((R*)-1-(5-methyl-1,3,4-oxadiazol-2-yl)ethyl)-1,2,3,4,8,9-hexahydropyrido[4′,3′:3,4]pyrazolo[1,5-a]pyrazin-10(7H)-one], the CC50 at 3 days in data set [1] is more than 50 µM. Also, the half-maximal effective concentration (EC50) in data set [2] is 0.31 µM. Besides, the half-life at 1 μM in data set [3] is more than 3 h.

Take `CC(c1nnc(C2CC2)o1)N1C[C@@H](C)n2nc3c(c2C1=O)CN(C(=O)c1ccc(Cl)c(Cl)c1)[C@H](C)C3` (single isomer, unassigned) [Compound 44A, (3R,7R)-9-((R*)-1-(5-cyclopropyl-1,3,4-oxadiazol-2-yl)ethyl)-2-(3,4-dichlorobenzoyl)-3,7-dimethyl-1,2,3,4,8,9-hexahydropyrido[4′,3′:3,4]pyrazolo[1,5-a]pyrazin-10(7H)-one]: the CC50 at 3 days in data set [1] is more than 50 µM. This molecule also came in with an EC50 in data set [2] of 0.22 µM. For the same molecule, the half-life at 1 μM in data set [3] is more than 3 h.

The molecule `CC(c1cc(F)c(=O)n(C)c1)N1C[C@@H](C)n2nc3c(c2C1=O)CN(C(=O)c1ccc(Cl)c(Cl)c1)[C@H](C)C3` (single isomer, unassigned) [Compound 45B, (3R,7R)-2-(3,4-dichlorobenzoyl)-9-((S*)-1-(5-fluoro-1-methyl-6-oxo-1,6-dihydropyridin-3-yl)ethyl)-3,7-dimethyl-1,2,3,4,8,9-hexahydropyrido[4′,3′:3,4]pyrazolo [1,5-a]pyrazin-10(7H)-one] had a CC50 at 3 days in data set [1] of more than 50 µM. A half-maximal effect in data set [2] (setting [4]) (EC50) was put at 0.027 µM. Moreover, the half-life at 1 μM in data set [3] was more than 3 h.
